Assay results published in US20140378408A1, “NUCLEOSIDE 5'-PHOSPHOROTHIOATE ANALOGUES AND USES THEREOF” (BAR-ILAN UNIVERSITY, an Israeli University, priority 2012, published 2014).

Target: T1, Aβ28-Cu^+ complex (Homo sapiens, UniProt P05067)
T1 construct: we first studied Aβ28, as a more soluble fragment of Aβ40; purchased Sigma-Aldrich
Assay: Titration of Aβ28-Cu^+ complex by chelators monitored by 1H-NMR
Settings: 0.8 mM Aβ28-Cu^+, pD 7

T1 sequence (P05067 672-699 limits assumed, one chain of several): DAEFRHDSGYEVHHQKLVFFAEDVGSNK

Compound: Nc1ncnc2c1ncn2[C@@H]1O[C@H](COP(=O)(O)OP(O)(O)=S)[C@@H](O)[C@H]1O [ADP-β-S, adenosine 5′-[β-thio]diphosphate, reference compound]
- equivalents at which the spectrum resembled that of pure Aβ28: 5 eq
